From patent US20230085307A1, “PYRIDAZINONE COMPOUND AND HERBICIDE” (NISSAN CHEMICAL CORPORATION, priority 2019, published 2023)

Experiments:
late watergrass = assay: Test Example 1: herbicidal activity, application before weed generation under submerged conditions (Table 16, symbol A); type: in vivo, late watergrass (Echinochloa oryzicola); details: amount of applied herbicide 320 g/ha
How it was run: (§1)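 Submerged Wagner pots (alluvial soil, 4 cm water) sown with weed seeds and planted with 2.5-leaf rice seedlings; emulsifiable concentrate diluted in water applied to water surface on sowing day. Held in greenhouse at 25-30 °C; injury scored 0-5 by herbicidal rate after three weeks.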

Japanese bulrush = assay: Test Example 1: herbicidal activity, application before weed generation under submerged conditions (Table 16, symbol B); type: in vivo, Japanese bulrush (Schoenoplectus juncoides); details: amount of applied herbicide 320 g/ha
How it was run: as §1

oval-leafed pondweed = assay: Test Example 1: herbicidal activity, application before weed generation under submerged conditions (Table 16, symbol C); type: in vivo, oval-leafed pondweed (Monochoria vaginalis); details: amount of applied herbicide 320 g/ha
How it was run: as §1

barnyard grass [1] = assay: Test Example 3: herbicidal effect by foliage application, Wagner pot (Table 18, symbol H); type: in vivo, barnyard grass (Echinochloa crus-galli); details: 320 g/ha
How it was run: (§2)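 Plants were sown in alluvial soil held under 0.1–0.5 cm standing water and grown 14 days in a greenhouse at 25–30 °C. An emulsifiable formulation, water-diluted to the set dose, was then sprayed onto the foliage, and effects were scored three weeks later using previously defined criteria.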

Chinese sprangletop = assay: Test Example 3: herbicidal effect by foliage application, Wagner pot (Table 18, symbol D); type: in vivo, chinese sprangletop (Leptochloa chinensis); details: 320 g/ha
How it was run: as §2

rice flat sedge = assay: Test Example 3: herbicidal effect by foliage application, Wagner pot (Table 18, symbol E); type: in vivo, rice flat sedge (Cyperus iria); details: 320 g/ha
How it was run: as §2

southern crabgrass [2] = assay: Test Example 4: herbicidal effect by soil treatment (Table 19, symbol F); type: in vivo, southern crabgrass (Digitaria ciliaris); details: amount of applied herbicide 320 g/ha
How it was run: (§3)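 Three weeks of greenhouse growth at 25° C. to 30° C. followed a uniform surface spray of water-diluted emulsion at a predetermined herbicide amount. Seeds had been sown beforehand under about 1.5 cm of sterilized diluvial soil. Grading followed criteria set out in an earlier test.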

green foxtail [3] = assay: Test Example 4: herbicidal effect by soil treatment (Table 19, symbol G); type: in vivo, green foxtail (Setaria viridis); details: amount of applied herbicide 320 g/ha
How it was run: as §3

barnyard grass [4] = assay: Test Example 4: herbicidal effect by soil treatment (Table 19, symbol H); type: in vivo, barnyard grass (Echinochloa crus-galli); details: amount of applied herbicide 320 g/ha
How it was run: as §3

wild oat [5] = assay: Test Example 4: herbicidal effect by soil treatment (Table 19, symbol I); type: in vivo, wild oat (Avena fatua); details: amount of applied herbicide 320 g/ha
How it was run: as §3

blackgrass [6] = assay: Test Example 4: herbicidal effect by soil treatment (Table 19, symbol J); type: in vivo, blackgrass (Alopecurus myosuroides); details: amount of applied herbicide 320 g/ha
How it was run: as §3

Italian ryegrass [7] = assay: Test Example 4: herbicidal effect by soil treatment (Table 19, symbol K); type: in vivo, Italian ryegrass (Lolium multiflorum); details: amount of applied herbicide 320 g/ha
How it was run: as §3

windgrass [8] = assay: Test Example 4: herbicidal effect by soil treatment (Table 19, symbol L); type: in vivo, windgrass (Apera spica-venti); details: amount of applied herbicide 320 g/ha
How it was run: as §3

velvetleaf [9] = assay: Test Example 4: herbicidal effect by soil treatment (Table 19, symbol M); type: in vivo, velvetleaf (Abutilon theophrasti); details: amount of applied herbicide 320 g/ha
How it was run: as §3

redroot pigweed [10] = assay: Test Example 4: herbicidal effect by soil treatment (Table 19, symbol N); type: in vivo, redroot pigweed (Amaranthus retroflexus); details: amount of applied herbicide 320 g/ha
How it was run: as §3

lambsquarters [11] = assay: Test Example 4: herbicidal effect by soil treatment (Table 19, symbol O); type: in vivo, lambsquarters (Chenopodium album); details: amount of applied herbicide 320 g/ha
How it was run: as §3

chickweed [12] = assay: Test Example 4: herbicidal effect by soil treatment (Table 19, symbol P); type: in vivo, common chickweed (Stellaria media); details: amount of applied herbicide 320 g/ha
How it was run: as §3

persian speedwell [13] = assay: Test Example 4: herbicidal effect by soil treatment (Table 19, symbol R); type: in vivo, Persian speedwell (Veronica persica); details: amount of applied herbicide 320 g/ha
How it was run: as §3

southern crabgrass [14] = assay: Test Example 5: herbicidal effect by foliage application, plastic box (Table 20, symbol F); type: in vivo, southern crabgrass (Digitaria ciliaris); details: amount of applied herbicide 320 g/ha; foliage application after 14-day growth; evaluated three weeks after application
How it was run: (§4)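 Plants sown in sterilized diluvial soil and grown 14 days in a greenhouse at 25° C to 30° C, then sprayed on the foliage with the compound's emulsion diluted in water to a predetermined herbicide amount. Injury to weeds and crops scored three weeks after application on a visual rating scale.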

green foxtail [15] = assay: Test Example 5: herbicidal effect by foliage application, plastic box (Table 20, symbol G); type: in vivo, green foxtail (Setaria viridis); details: amount of applied herbicide 320 g/ha; foliage application after 14-day growth; evaluated three weeks after application
How it was run: as §4

barnyard grass [16] = assay: Test Example 5: herbicidal effect by foliage application, plastic box (Table 20, symbol H); type: in vivo, barnyard grass (Echinochloa crus-galli); details: amount of applied herbicide 320 g/ha; foliage application after 14-day growth; evaluated three weeks after application
How it was run: as §4

wild oat [17] = assay: Test Example 5: herbicidal effect by foliage application, plastic box (Table 20, symbol I); type: in vivo, wild oat (Avena fatua); details: amount of applied herbicide 320 g/ha; foliage application after 14-day growth; evaluated three weeks after application
How it was run: as §4

blackgrass [18] = assay: Test Example 5: herbicidal effect by foliage application, plastic box (Table 20, symbol J); type: in vivo, blackgrass (Alopecurus myosuroides); details: amount of applied herbicide 320 g/ha; foliage application after 14-day growth; evaluated three weeks after application
How it was run: as §4

Italian ryegrass [19] = assay: Test Example 5: herbicidal effect by foliage application, plastic box (Table 20, symbol K); type: in vivo, Italian ryegrass (Lolium multiflorum); details: amount of applied herbicide 320 g/ha; foliage application after 14-day growth; evaluated three weeks after application
How it was run: as §4

windgrass [20] = assay: Test Example 5: herbicidal effect by foliage application, plastic box (Table 20, symbol L); type: in vivo, windgrass (Apera spica-venti); details: amount of applied herbicide 320 g/ha; foliage application after 14-day growth; evaluated three weeks after application
How it was run: as §4

velvetleaf [21] = assay: Test Example 5: herbicidal effect by foliage application, plastic box (Table 20, symbol M); type: in vivo, velvetleaf (Abutilon theophrasti); details: amount of applied herbicide 320 g/ha; foliage application after 14-day growth; evaluated three weeks after application
How it was run: as §4

redroot pigweed [22] = assay: Test Example 5: herbicidal effect by foliage application, plastic box (Table 20, symbol N); type: in vivo, redroot pigweed (Amaranthus retroflexus); details: amount of applied herbicide 320 g/ha; foliage application after 14-day growth; evaluated three weeks after application
How it was run: as §4

lambsquarters [23] = assay: Test Example 5: herbicidal effect by foliage application, plastic box (Table 20, symbol O); type: in vivo, lambsquarters (Chenopodium album); details: amount of applied herbicide 320 g/ha; foliage application after 14-day growth; evaluated three weeks after application
How it was run: as §4

chickweed [24] = assay: Test Example 5: herbicidal effect by foliage application, plastic box (Table 20, symbol P); type: in vivo, common chickweed (Stellaria media); details: amount of applied herbicide 320 g/ha; foliage application after 14-day growth; evaluated three weeks after application
How it was run: as §4

false cleavers = assay: Test Example 5: herbicidal effect by foliage application, plastic box (Table 20, symbol Q); type: in vivo, false cleavers (Galium spurium); details: amount of applied herbicide 320 g/ha; foliage application after 14-day growth; evaluated three weeks after application
How it was run: as §4

persian speedwell [25] = assay: Test Example 5: herbicidal effect by foliage application, plastic box (Table 20, symbol R); type: in vivo, Persian speedwell (Veronica persica); details: amount of applied herbicide 320 g/ha; foliage application after 14-day growth; evaluated three weeks after application
How it was run: as §4

## CCCC(=O)Oc1c(C)nn(C)c(=O)c1-c1c(-c2ccc(COC)cc2)sc2cc(F)c(F)cc12 [5-010]
Late watergrass
  Herbicidal effect, A: late watergrass: 0 (Herbicidal rate of 5% or less (almost no effect))
Japanese bulrush
  Herbicidal effect, B: Japanese bulrush: 2 (Herbicidal rate of 20% or more and less than 40%)
oval-leafed pondweed
  Herbicidal effect, C: oval-leafed pondweed: 0 (Herbicidal rate of 5% or less (almost no effect))
Barnyard grass [1]
  herbicidal effect on barnyard grass (H): 3 (Herbicidal rate of 40% or more and less than 70%)
Chinese sprangletop
  herbicidal effect on Chinese sprangletop (D): 3 (Herbicidal rate of 40% or more and less than 70%)
Rice flat sedge
  herbicidal effect on rice flat sedge (E): 4 (Herbicidal rate of 70% or more and less than 90%)
Southern crabgrass [2]
  F: southern crabgrass, herbicidal effect grade: 0 (Herbicidal rate of 5% or less (almost no effect))
Green foxtail [3]
  G: green foxtail, herbicidal effect grade: 0 (Herbicidal rate of 5% or less (almost no effect))
Barnyard grass [4]
  H: barnyard grass, herbicidal effect grade: 2 (Herbicidal rate of 20% or more and less than 40%)
Wild oat [5]
  I: wild oat, herbicidal effect grade: 0 (Herbicidal rate of 5% or less (almost no effect))
Blackgrass [6]
  J: blackgrass, herbicidal effect grade: 0 (Herbicidal rate of 5% or less (almost no effect))
Italian ryegrass [7]
  K: Italian ryegrass, herbicidal effect grade: 0 (Herbicidal rate of 5% or less (almost no effect))
Windgrass [8]
  L: windgrass, herbicidal effect grade: 0 (Herbicidal rate of 5% or less (almost no effect))
Velvetleaf [9]
  M: velvetleaf, herbicidal effect grade: 2 (Herbicidal rate of 20% or more and less than 40%)
Redroot pigweed [10]
  N: redroot pigweed, herbicidal effect grade: 3 (Herbicidal rate of 40% or more and less than 70%)
Lambsquarters [11]
  O: lambsquarters, herbicidal effect grade: 3 (Herbicidal rate of 40% or more and less than 70%)
Chickweed [12]
  P: chickweed, herbicidal effect grade: 0 (Herbicidal rate of 5% or less (almost no effect))
Persian speedwell [13]
  R: persian speedwell, herbicidal effect grade: 2 (Herbicidal rate of 20% or more and less than 40%)
Southern crabgrass [14]
  Herbicidal effect by foliage application, F: southern crabgrass: 0 (Herbicidal rate of 5% or less (almost no effect))
Green foxtail [15]
  Herbicidal effect by foliage application, G: green foxtail: 4 (Herbicidal rate of 70% or more and less than 90%)
Barnyard grass [16]
  Herbicidal effect by foliage application, H: barnyard grass: 1 (Herbicidal rate of 5% or more and less than 20%)
Wild oat [17]
  Herbicidal effect by foliage application, I: wild oat: 0 (Herbicidal rate of 5% or less (almost no effect))
Blackgrass [18]
  Herbicidal effect by foliage application, J: blackgrass: 0 (Herbicidal rate of 5% or less (almost no effect))
Italian ryegrass [19]
  Herbicidal effect by foliage application, K: Italian ryegrass: 1 (Herbicidal rate of 5% or more and less than 20%)
Windgrass [20]
  Herbicidal effect by foliage application, L: windgrass: 0 (Herbicidal rate of 5% or less (almost no effect))
Velvetleaf [21]
  Herbicidal effect by foliage application, M: velvetleaf: 0 (Herbicidal rate of 5% or less (almost no effect))
Redroot pigweed [22]
  Herbicidal effect by foliage application, N: redroot pigweed: 2 (Herbicidal rate of 20% or more and less than 40%)
Lambsquarters [23]
  Herbicidal effect by foliage application, O: lambsquarters: 3 (Herbicidal rate of 40% or more and less than 70%)
Chickweed [24]
  Herbicidal effect by foliage application, P: chickweed: 3 (Herbicidal rate of 40% or more and less than 70%)
False cleavers
  Herbicidal effect by foliage application, Q: false cleavers: 5 (Herbicidal rate of 90% or more (almost completely withered))
Persian speedwell [25]
  Herbicidal effect by foliage application, R: persian speedwell: 5 (Herbicidal rate of 90% or more (almost completely withered))
